For assay [1], the system named is HepG2. The experiment in a line: Hepatoprotective activity against H2O2-induced human HepG2 cells assessed as increase in AST level at 186.00 uM. It is filed as functional.
For assay [2], the system named is HepG2. The experiment in a line: Hepatoprotective activity against H2O2-induced human HepG2 cells assessed as increase in ALT level. Format: functional.
The species named for assay [3] is Mus musculus. Briefly: Hepatoprotective activity in CCl4-induced toxicity in liver injured mouse assessed as increase in inhibition of liver damage at 50 uM relative to control. Format: functional. Set-up: scale not given: the % may be the effect or the level left.
The species named for assay [4] is Mus musculus. Briefly: Hepatoprotective activity in CCl4-induced mouse assessed as change in SGPT level (reference value: 6.9 mmol/L). Format: functional.
Assay [5] concerns HepG2. The experiment in a line: Hepatoprotective activity against H2O2-induced cell death in human HepG2 cells assessed as reduction in ALT level at 74.60 uM preincubated for 1 hr followed by H2O2-stimulation and measured after 24 hrs. Format: functional. The following applies: dose 74.6 µM.
For assay [6], the system named is HepG2. Briefly: Hepatoprotective activity against H2O2-induced cell death in human HepG2 cells assessed as reduction in AST level at 74.60 uM preincubated for 1 hr followed by H2O2-stimulation and measured after 24 hrs. The following applies: dose 74.6 µM. It is filed as functional.
Assay [7] deals with HepG2. Briefly: Hepatoprotective activity against H2O2-induced cell death in human HepG2 cells assessed as reduction in AST level at 18.65 uM preincubated for 1 hr followed by H2O2-stimulation and measured after 24 hrs. Format: functional.
A further assay concerns Huh-7. Briefly: Hepatoprotective activity in human Huh-7 cells assessed as reduction in AST level. Format: functional. Further details: scale not given: the % may be the effect or the level left.
Assay [8] relates to L02. Briefly: Protection against D-GalN-induced toxicity in L02 cells […] assessed as reduction in cell growth at 6.25 microg/ml relative to control. Format: functional, Homo sapiens. Set-up: scale not given: the % may be the effect or the level left. The following applies: dose 6.25 µg/ml.
Assay [9] deals with L02. Briefly: Protection against D-GalN-induced toxicity in L02 cells […] assessed as reduction in cell growth relative to control. Set-up: scale not given: the % may be the effect or the level left. Format: functional, Homo sapiens.
Assay [10] has as its system L02. The experiment in a line: Protection against D-GalN-induced toxicity in L02 cells […] assessed as reduction in cell growth at 3.13 microg/ml relative to control. Format: functional, Homo sapiens. Set-up: scale not given: the % may be the effect or the level left. The following applies: dose 3.13 µg/ml.
A further assay concerns Hepatocyte. Briefly: Protection against CCL4-induced rat hepatocyte toxicity assessed as reduction in ALT level at 90 uM relative to control. It is filed as functional. Further details: scale not given: the % may be the effect or the level left.

`C/C(=C\CC[C@@H](C)[C@H]1CC[C@@]2(C)C3=C(CC[C@]12C)[C@@]1(C)CC[C@H](O)C(C)(C)[C@@H]1CC3=O)C(=O)O`: the Activity in the assay on HepG2 [1] was 24.27 U/L; with HepG2 [2] it was 20.95 U/L.

With `C[C@H]1[C@H](C)CC[C@]2(C(=O)O)CC[C@]3(C)C(=CC[C@@H]4[C@@]5(C)CC[C@H](O)[C@@](C)(CO)[C@@H]5CC[C@]43C)[C@H]12`, the Activity in the assay filed under Mus musculus [3] is 58.3%.

For the compound `CC1(C)CC[C@]2(C(=O)O)CC[C@]3(C)C(=CC[C@@H]4[C@@]5(C)CCC(OC(=O)/C=C/c6ccc(O)c(O)c6)C(C)(C)[C@@H]5CC[C@]43C)[C@@H]2C1` (stereo partly drawn), the Activity in the assay listed under Mus musculus [4] was 3.53 mmol/L.

Consider `C=C(C)[C@@H]1C[C@H](O)C2=C(C(=O)C[C@]3(C)[C@@H]([C@H](C)CCC(=O)OC)CC[C@@]23C)[C@@]1(C)CCC(=O)O`, for which the Activity was determined as 7.22 U/L in the assay on HepG2 [5], 10.53 U/L with HepG2 [6] and 19.56 U/L with HepG2 [7].

Take `C[C@@H]1CC[C@]2(C(=O)O)CC[C@]3(C)C(=CC[C@@H]4[C@@]5(C)C[C@@H](O)[C@@H](O)C(C)(C)[C@@H]5CC[C@]43C)[C@@H]2[C@]1(C)O` [EUSCAPHIC ACID]: in the assay on Huh-7, the Activity is listed as 48.8%.

In the case of `CC(C)(O[C@@H]1O[C@H](CO)[C@@H](O)[C@H](O)[C@H]1O)[C@@H]1CC[C@@H]([C@H]2[C@H](O)C[C@]3(C)[C@@H]2CC[C@@H]2[C@@]4(C)CC[C@H](O[C@@H]5O[C@H](CO)[C@@H](O)[C@H](O)[C@H]5O[C@@H]5O[C@H](CO)[C@@H](O)[C@H](O)[C@H]5O)C(C)(C)[C@@H]4CC[C@]23C)O1`, the Activity with L02 [8] was determined as 22.8%; with L02 [9], 46.7%; with L02 [10] it was 22.8%.

For the compound `C[C@@H]1O[C@@H](O[C@H]2[C@H](O[C@H]3CC[C@]4(C)[C@H]5CC=C6[C@@H]7CC(C)(C)CC[C@]7(C(=O)O[C@@H]7O[C@H](CO)[C@@H](O)[C@H](O)[C@H]7O[C@@H]7O[C@H](CO)[C@@H](O)[C@H](O)[C@H]7O)[C@H](O)C[C@@]6(C)[C@]5(C)CC[C@H]4C3(C)C)O[C@H](CO)[C@@H](O)[C@@H]2O)[C@H](O)[C@H](O)[C@H]1O`, the Activity in the assay with Hepatocyte was 79%.

For the compound `C[C@@H]1O[C@@H](O[C@H]2[C@H](O[C@H]3CC[C@]4(C)[C@H]5CC=C6[C@@H]7CC(C)(C)CC[C@]7(C(=O)O[C@@H]7O[C@H](CO)[C@@H](O[C@@H]8O[C@H](CO)[C@@H](O)[C@H](O)[C@H]8O)[C@H](O)[C@H]7O[C@@H]7O[C@H](CO)[C@@H](O)[C@H](O)[C@H]7O)[C@H](O)C[C@@]6(C)[C@]5(C)CC[C@H]4C3(C)C)O[C@H](CO)[C@@H](O)[C@@H]2O)[C@H](O)[C@H](O)[C@H]1O`, the Activity in the assay on Hepatocyte is 4%.
